This note sets out measurements from patent US7521418B2, “Use of a polyene macrolide antifungal agent in combination with a glycopeptide antibacterial agent” (Theravance, Inc., priority 2003, dated 2009).

Common to all, as to assay: Checkerboard MIC assay, FICI
Holding throughout (settings): combination with Compound 1

In test [1] the test system is A. fumigatus ATCC 14110. The format is cell-based, Aspergillus fumigatus. The text has this: (§1) The following assay was used to determine the minimum inhibitory concentration (MIC) and fractional inhibitory concentration index (FICI) for combinations of an antifungal agent and a glycopeptide antibacterial agent. This assay and methods for calculating FICI are well known in the art. See, for example, Eliopoulos, E. G. and R. Moellering, Jr. “Antimicrobial Combinations” in Antibiotics in Laboratory Medicine, edited by V. Lorian, 4th Ed., Williams & Wilkins, Baltimore, MD, pp. 330-396 (1996); […] et al., Antimicrobial Agents and Chemotherapy 47(4):1416-1418 (2003); or […] et al., Antimicrobial Agents and Chemotherapy 46(10):3323-3326 (2002). […] The MIC of the glycopeptide antibacterial agent determined from this experiment was used in FIC calculations. […]

For test [2], the system named is F. moniliforme ATCC 38159. The class given is cell-based, Fusarium moniliforme.
From the text: as §1

Test [3] has as its system P. boydii ATCC 38283. The class given is cell-based, Pseudallescheria boydii.
From the text: as §1

Regarding `C[C@@H]1[C@H](O)[C@@H](C)/C=C/C=C/C=C/C=C/C=C/C=C/C=C/[C@H](O[C@@H]2O[C@H](C)[C@@H](O)[C@H](N)[C@@H]2O)C[C@@H]2O[C@](O)(C[C@@H](O)C[C@@H](O)[C@H](O)CC[C@@H](O)C[C@@H](O)CC(=O)O[C@H]1C)C[C@H](O)[C@H]2C(=O)O` [Amphotericin B], the figures for the FICI in test [1], in test [2] and in test [3] were 0.31, 0.53 and 0.38, respectively.

Consider `C[C@@H]1[C@H](O)[C@@H](C)/C=C/C=C/CC/C=C/C=C/C=C/C=C/C(O[C@H]2O[C@H](C)[C@@H](O)[C@H](N)[C@@H]2O)CC2O[C@](O)(CC(O)C(O)CCC(O)CC(O)CC(O)CC(=O)O[C@H]1C)CC(O)C2C(=O)O` (stereo partly drawn) [Nystatin], for which the FICI worked out at 1.25 in test [1], 0.51 in test [2] and 0.38 in test [3].
